Measured values published in patent publication US4670260A, “Antibiotic for animal feeds” (Bayer Aktiengesellschaft, priority 1984, dated 1987).

Test system: Streptomyces strain BA 9
Assay: Growth inhibition of producing strain BA 9 by antibiotics
Assay type: cell-based, Streptomyces sp.
Conditions: 5 μg; ISP medium No. 1+, 28° C., 2 d
Method: The optimum temperature is 28° (ISP medium No. 1^+, 5 d). No growth was observed on ISP medium No. 7 (tyrosine agar). Melanin is formed on ISP medium No. 6. The growth is inhibited by chloramphenicol (10 μg); erythromycin (10 μg), sulphafurazole (100 μg), streptomycin (10 μg), tetracycline (10 μg), chephaloridine (5 μg) fusidic acid (10 μg), lincomycin (10 μg) and novobiocib (5 μg) (ISP medium No. 1^+, 28° C., 2 d). Growth was good (substrate mycelium) on ISP media Nos. 3, 4 and 5, with sparse formation of aerial mycelium on ISP medium Nos. 3 and 5.

Question: How did the “growth inhibition of strain BA 9” value turn out when O=C(Cc1cccs1)N[C@@H]1C(=O)N2C(C(=O)[O-])=C(C[n+]3ccccc3)CS[C@H]12 [chephaloridine] was run?
Answer: inhibited

Question: How did the “growth inhibition of strain BA 9” value turn out when CO[C@@H]1[C@@H](OC(N)=O)[C@@H](O)[C@H](Oc2ccc3c(O)c(NC(=O)c4ccc(O)c(CC=C(C)C)c4)c(=O)oc3c2C)OC1(C)C [novobiocib] was run?
Answer: inhibited

Same assay, conditions: 10 μg; ISP medium No. 1+, 28° C., 2 d

Question: O=C(N[C@H](CO)[C@H](O)c1ccc([N+](=O)[O-])cc1)C(Cl)Cl [chloramphenicol] was tested. Which “growth inhibition of strain BA 9” value did it give?
Answer: inhibited

Question: How did the “growth inhibition of strain BA 9” value turn out when CC[C@H]1OC(=O)[C@H](C)[C@@H](O[C@H]2C[C@@](C)(OC)[C@@H](O)[C@H](C)O2)[C@H](C)[C@@H](O[C@@H]2O[C@H](C)C[C@H](N(C)C)[C@H]2O)[C@](C)(O)C[C@@H](C)C(=O)[C@H](C)[C@@H](O)[C@]1(C)O [erythromycin] was run?
Answer: inhibited

Question: CC(=O)O[C@H]1C[C@@]2(C)[C@@H](C[C@@H](O)[C@H]3[C@@]4(C)CC[C@@H](O)[C@@H](C)[C@@H]4CC[C@@]32C)/C1=C(\CCC=C(C)C)C(=O)O [fusidic acid] was tested. Which “growth inhibition of strain BA 9” value did it give?
Answer: inhibited

Question: Which “growth inhibition of strain BA 9” value does the source give for CCC[C@@H]1C[C@@H](C(=O)N[C@@H]([C@H]2O[C@H](SC)[C@H](O)[C@@H](O)[C@H]2O)[C@@H](C)O)N(C)C1 [lincomycin] here?
Answer: inhibited

Question: With [H]/N=C(/N)N[C@H]1[C@H](O)[C@@H](O)[C@H](O[C@@H]2O[C@@H](C)[C@](O)(C=O)[C@H]2O[C@@H]2O[C@@H](CO)[C@H](O)[C@@H](O)[C@@H]2NC)[C@@H](N/C(N)=N\[H])[C@@H]1O [streptomycin] as the molecule, how does the “growth inhibition of strain BA 9” value read?
Answer: inhibited

Question: Which “growth inhibition of strain BA 9” value does the source give for CN(C)C1C(=O)C(C(N)=O)=C(O)C2(O)C(=O)C3=C(O)c4c(O)cccc4C(C)(O)C3CC12 (stereo not drawn) [tetracycline] here?
Answer: inhibited

Same assay, conditions: 100 μg; ISP medium No. 1+, 28° C., 2 d

Question: How did the “growth inhibition of strain BA 9” value turn out when Cc1noc(NS(=O)(=O)c2ccc(N)cc2)c1C [sulphafurazole] was run?
Answer: inhibited
